Data reported in patent publication US10294202B2, “Pyrrolidinones as herbicides” (FMC Corporation, priority 2013, dated 2019).

Key:
barnyardgrass [1] = test: Test A pre-/postemergence herbicide test; assay type: in vivo, Echinochloa crus-galli
Summary of the method: (§1)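 Greenhouse pot test with pre- and postemergence application of surfactant-containing solvent formulations. Postemergence plants were 2–10 cm, one- to two-leaf stage. Response scored visually after ~10 days, 0 (no effect) to 100 (complete control).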

pigweed = test: Test A pre-/postemergence herbicide test; assay type: in vivo, Amaranthus retroflexus
Summary of the method: as §1

corn [2] = test: Test A pre-/postemergence herbicide test; assay type: in vivo, Zea mays; conditions: Postemergence
Summary of the method: as §1

rice = test: Test B flooded paddy test; assay type: in vivo, Oryza sativa; conditions: 500 g ai/ha, Flood; scale of 0 to 100 where 0 is no effect and 100 is complete control
Summary of the method: (§2)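 Plants grown to 2-leaf stage; pots flooded 3 cm above soil and compound applied directly into paddy water, depth held throughout. Visual rating against untreated controls after 13 to 15 days in greenhouse, 0 (no effect) to 100 (complete control).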

ducksalad = test: Test B flooded paddy test; assay type: in vivo, Heteranthera limosa; conditions: 500 g ai/ha, Flood; scale of 0 to 100 where 0 is no effect and 100 is complete control
Summary of the method: as §2

barnyardgrass [3] = test: Test B flooded paddy test; assay type: in vivo, Echinochloa crus-galli; conditions: 500 g ai/ha, Flood; scale of 0 to 100 where 0 is no effect and 100 is complete control
Summary of the method: as §2

corn [4] = test: Test C pre-/postemergence herbicide test; assay type: in vivo, Zea mays
Summary of the method: (§3)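 Greenhouse pots; formulation = non-phytotoxic solvent mix + surfactant. PRE onto seeds in loam:sand; POST at 1–4 leaves (2–18 cm) in peat moss/vermiculite medium. Read-out: visual % control vs untreated, day 13–15.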

foxtail, giant = test: Test C pre-/postemergence herbicide test; assay type: in vivo, Setaria faberii
Summary of the method: as §3

nutsedge, yellow = test: Test C pre-/postemergence herbicide test; assay type: in vivo, Cyperus esculentus
Summary of the method: as §3

soybean = test: Test C pre-/postemergence herbicide test; assay type: in vivo, Glycine max
Summary of the method: as §3

barnyardgrass [5] = test: Test C pre-/postemergence herbicide test; assay type: in vivo, Echinochloa crus-galli
Summary of the method: as §3

oilseed rape = test: Test C pre-/postemergence herbicide test; assay type: in vivo, Brassica napus
Summary of the method: as §3

[6] = Postemergence, 125 g ai/ha, visual rating on 0 to 100 scale (0 no effect, 100 complete control), approx. 10 days
[7] = Postemergence, 500 g ai/ha, 0 to 100 scale (0 no effect, 100 complete control)
[8] = Preemergence, 125 g ai/ha, 0 to 100 scale where 0 is no effect and 100 is complete control
[9] = Preemergence, 500 g ai/ha, visual rating on 0 to 100 scale (0 no effect, 100 complete control)
[10] = 125 g ai/ha, visual rating on 0 to 100 scale (0 no effect, 100 complete control), approx. 10 days
[11] = 500 g ai/ha, 0 to 100 scale (0 no effect, 100 complete control)
[12] = Postemergence, 16 g ai/ha, scale 0 to 100 (0 no effect, 100 complete control)
[13] = Postemergence, 31 g ai/ha, scale 0 to 100 (0 no effect, 100 complete control)
[14] = Postemergence, 62 g ai/ha, scale 0 (no effect) to 100 (complete control)
[15] = Postemergence, 125 g ai/ha, scale 0 to 100 (0 no effect, 100 complete control)
[16] = Preemergence, 31 g ai/ha, scale 0 to 100, 0 is no effect and 100 is complete control
[17] = Preemergence, 62 g ai/ha, scale 0 to 100 (0 no effect, 100 complete control)
[18] = Preemergence, 125 g ai/ha, scale 0 to 100 (0 no effect, 100 complete control)
[19] = Preemergence, 16 g ai/ha, scale 0 to 100
[20] = Preemergence, 125 g ai/ha, scale 0 to 100

Question: Which results are given for CN1CC(c2ccc(C(F)(F)F)cc2)C(C(=O)Nc2ccccc2F)C1=O (stereo not shown) [Compound 304]?
Answer: Plant response rating, Barnyardgrass (barnyardgrass [1]; [6]): 80; Plant response rating, Barnyardgrass (barnyardgrass [1]; [7]): 90; Plant response rating, Barnyardgrass (barnyardgrass [1]; [8]): 90; Barnyardgrass plant response rating (barnyardgrass [1]; [9]): 90; Plant response rating, Pigweed (pigweed; [6]): 40; Plant response rating, Pigweed (pigweed; [7]): 60; Plant response rating, Pigweed (pigweed; [8]): 70; Pigweed plant response rating (pigweed; [9]): 80; Plant response rating, Corn (corn [2]; [10]): 30; Plant response rating, Corn (corn [2]; [11]): 70; Plant response rating, Rice (rice): 35; Plant response rating, Ducksalad (ducksalad): 100; Plant response rating, Barnyardgrass (barnyardgrass [3]): 80; Plant response rating, Corn (corn [4]; [12]): 0; Plant response rating, Corn (corn [4]; [13]): 0; Plant response rating, Corn (corn [4]; [14]): 0; Plant response rating, Corn (corn [4]; [15]): 5; Corn plant response rating (corn [4]; [16]): 0; Corn plant response rating (corn [4]; [17]): 40; Plant response rating, Corn (corn [4]; [18]): 65; Plant response rating, Corn (corn [4]; [19]): 0; Plant response rating, Foxtail, Giant (foxtail, giant; [12]): 0; Plant response rating, Foxtail, Giant (foxtail, giant; [13]): 0; Plant response rating, Foxtail, Giant (foxtail, giant; [14]): 10; Plant response rating, Foxtail, Giant (foxtail, giant; [15]): 45; Foxtail, Giant plant response rating (foxtail, giant; [16]): 90; Foxtail, Giant plant response rating (foxtail, giant; [17]): 95; Plant response rating, Foxtail, Giant (foxtail, giant; [18]): 95; Plant response rating, Foxtail, Giant (foxtail, giant; [19]): 90; Plant response rating, Nutsedge, Yellow (nutsedge, yellow; [12]): 0; Plant response rating, Nutsedge, Yellow (nutsedge, yellow; [13]): 0; Plant response rating, Nutsedge, Yellow (nutsedge, yellow; [14]): 0; Plant response rating, Nutsedge, Yellow (nutsedge, yellow; [15]): 0; Nutsedge, Yellow plant response rating (nutsedge, yellow; [16]): 0; Nutsedge, Yellow plant response rating (nutsedge, yellow; [17]): 25; Plant response rating, Nutsedge, Yellow (nutsedge, yellow; [18]): 0; Plant response rating, Nutsedge, Yellow (nutsedge, yellow; [19]): 0; Plant response rating, Soybean (soybean; [12]): 0; Plant response rating, Soybean (soybean; [13]): 0; Plant response rating, Soybean (soybean; [14]): 5; Plant response rating, Soybean (soybean; [15]): 10; Soybean plant response rating (soybean; [16]): 0; Soybean plant response rating (soybean; [17]): 0; Plant response rating, Soybean (soybean; [18]): 0; Plant response rating, Soybean (soybean; [19]): 0; Plant response rating, Barnyardgrass (barnyardgrass [5]; [12]): 0; Plant response rating, Barnyardgrass (barnyardgrass [5]; [13]): 0; Plant response rating, Barnyardgrass (barnyardgrass [5]; [14]): 0; Plant response rating, Barnyardgrass (barnyardgrass [5]; [15]): 40; Barnyardgrass plant response rating (barnyardgrass [5]; [16]): 85; Barnyardgrass plant response rating (barnyardgrass [5]; [17]): 90; Plant response rating, Barnyardgrass (barnyardgrass [5]; [18]): 95; Plant response rating, Barnyardgrass (barnyardgrass [5]; [19]): 85; Plant response rating, Oilseed Rape (oilseed rape; [12]): 0; Plant response rating, Oilseed Rape (oilseed rape; [13]): 0; Plant response rating, Oilseed Rape (oilseed rape; [14]): 0; Plant response rating, Oilseed Rape (oilseed rape; [15]): 0; Oilseed Rape plant response rating (oilseed rape; [16]): 50; Oilseed Rape plant response rating (oilseed rape; [17]): 55; Plant response rating, Oilseed Rape (oilseed rape; [18]): 55; Plant response rating, Oilseed Rape (oilseed rape; [19]): 30

Question: How did the “Plant response rating, Barnyardgrass” value (barnyardgrass [1]; [6]) turn out when O=C1NCC(c2cccc(Br)c2)C1C(=O)Nc1ccccc1F (stereo not shown) [Compound 307] was run?
Answer: The value was 70.

Question: And the “Plant response rating, Barnyardgrass” value (barnyardgrass [1]; [7])?
Answer: The value was 90.

Question: What about the “Plant response rating, Barnyardgrass” value (barnyardgrass [1]; [8]) of the same molecule?
Answer: The value was 80.

Question: What about the “Barnyardgrass plant response rating” value (barnyardgrass [1]; [9]) of the same molecule?
Answer: Its value is 90.

Question: And the “Plant response rating, Pigweed” value (pigweed; [6])?
Answer: The value was 0.

Question: And the “Plant response rating, Pigweed” value (pigweed; [7])?
Answer: Its value is 0.

Question: And the “Plant response rating, Pigweed” value (pigweed; [8])?
Answer: Its value is 0.

Question: And the “Pigweed plant response rating” value (pigweed; [9])?
Answer: Its value is 0.

Question: And the “Plant response rating, Corn” value (corn [2]; [10])?
Answer: Its value is 0.

Question: And the “Plant response rating, Corn” value (corn [2]; [11])?
Answer: The value was 60.

Question: What about the “Plant response rating, Rice” value (rice) of the same molecule?
Answer: Its value is 0.

Question: And the “Plant response rating, Ducksalad” value (ducksalad)?
Answer: The value was 98.

Question: What about the “Plant response rating, Barnyardgrass” value (barnyardgrass [3]) of the same molecule?
Answer: The value was 65.

Question: And the “Corn plant response rating” value (corn [4]; [16])?
Answer: Its value is 0.

Question: What about the “Corn plant response rating” value (corn [4]; [17]) of the same molecule?
Answer: The value was 0.

Question: And the “Plant response rating, Corn” value (corn [4]; [20])?
Answer: Its value is 40.

Question: What about the “Plant response rating (scale of 0 to 100), Corn” value (corn [4]; Preemergence, 250 g ai/ha) of the same molecule?
Answer: Its value is 40.

Question: And the “Foxtail, Giant plant response rating” value (foxtail, giant; [16])?
Answer: The value was 65.

Question: And the “Foxtail, Giant plant response rating” value (foxtail, giant; [17])?
Answer: Its value is 85.

Question: What about the “Plant response rating, Foxtail, Giant” value (foxtail, giant; [20]) of the same molecule?
Answer: The value was 85.

Question: What about the “Plant response rating (scale of 0 to 100), Foxtail, Giant” value (foxtail, giant; Preemergence, 250 g ai/ha) of the same molecule?
Answer: Its value is 95.

Question: What about the “Nutsedge, Yellow plant response rating” value (nutsedge, yellow; [16]) of the same molecule?
Answer: Its value is 0.

Question: What about the “Nutsedge, Yellow plant response rating” value (nutsedge, yellow; [17]) of the same molecule?
Answer: The value was 0.

Question: What about the “Plant response rating, Nutsedge, Yellow” value (nutsedge, yellow; [20]) of the same molecule?
Answer: Its value is 0.

Question: And the “Plant response rating (scale of 0 to 100), Nutsedge, Yellow” value (nutsedge, yellow; Preemergence, 250 g ai/ha)?
Answer: The value was 0.

Question: What about the “Soybean plant response rating” value (soybean; [17]) of the same molecule?
Answer: Its value is 0.

Question: And the “Plant response rating, Soybean” value (soybean; [20])?
Answer: The value was 0.

Question: What about the “Plant response rating (scale of 0 to 100), Soybean” value (soybean; Preemergence, 250 g ai/ha) of the same molecule?
Answer: Its value is 0.

Question: And the “Barnyardgrass plant response rating” value (barnyardgrass [5]; [16])?
Answer: Its value is 40.

Question: What about the “Barnyardgrass plant response rating” value (barnyardgrass [5]; [17]) of the same molecule?
Answer: Its value is 70.

Question: What about the “Plant response rating, Barnyardgrass” value (barnyardgrass [5]; [18]) of the same molecule?
Answer: Its value is 85.

Question: What about the “Plant response rating (scale of 0 to 100; 0 is no effect, 100 is complete control), Barnyardgrass” value (barnyardgrass [5]; Preemergence, 250 g ai/ha) of the same molecule?
Answer: Its value is 95.

Question: What about the “Oilseed Rape plant response rating” value (oilseed rape; [16]) of the same molecule?
Answer: Its value is 0.

Question: What about the “Oilseed Rape plant response rating” value (oilseed rape; [17]) of the same molecule?
Answer: Its value is 0.

Question: What about the “Plant response rating, Oilseed Rape” value (oilseed rape; [20]) of the same molecule?
Answer: The value was 0.

Question: What about the “Plant response rating (scale of 0 to 100), Oilseed Rape” value (oilseed rape; Preemergence, 250 g ai/ha) of the same molecule?
Answer: Its value is 5.
